Experimental data from publication PMC5809559, “DYRK1A inhibition and cognitive rescue in a Down syndrome mouse model are induced by new fluoro-DANDY derivatives” (Scientific Reports, 2018).
Where two headings read alike, the source gives them in different places.

How the values were obtained:
[1] = Plasma and brain homogenate concentrations after Morris Water Maze (UHPLC-MS/MS); type: in vivo, mice; settings: for average plasma concentration: 20 mg/kg i.p. daily, after MWM; for Kp: mouse, brain, intraperitoneal, 20 mg/kg, read-out: partition coefficient at steady state (Kp = brain concentration/plasma concentration)
Procedure: […]. To that end, all animals were sacrificed directly after the Morris Water Maze (MWM) and plasma and brain homogenates (one hemisphere) were extracted and analyzed. […]. […] […]. However, Kp values might be underestimated due to high plasma levels that could saturate efflux transport to the brain.
All plasma and brain homogenate extracts were analyzed by an ultra-high performance liquid chromatography (UHPLC) system coupled to a triple-quadrupole mass spectrometer (Dionex Ultimate 3000 RSLC system coupled to a TSQ Vantage EMR, Thermo Scientific, Les Ulis, France). UHPLC separation was performed using a C18 column (HSS T3, 2.1 mm × 150 mm, 1.7 μm, Waters, Guyancourt, France) equipped with a guard column (HSS T3, 2.1 mm × 5 mm, 1.7 μm, Waters, Guyancourt, France) and maintained at 40 °C. The mobile phases were water, 0.1% formic acid (A) and acetonitrile (B). […]. Injection volume was 4 µL and the autosampler was maintained at 6 °C. Ionization was performed with a heated electrospray ionization source in positive mode. The source parameters were set as follows: spray voltage 3350 V, vaporizer temperature 250 °C, sheath gas (N2) pressure 55 psi, auxiliary gas pressure (N2) 25 psi, capillary temperature 350 °C. Analysis was performed under the Selected Reaction Monitoring (SRM) mode using several transitions for each compound at optimized collision energies (see Table SI2 and Figure SI1). […]. Data acquisition was performed using ThermoScientific Xcalibur 2.1 software system. All samples were analyzed in triplicate.
Two compounds, V[34] (Fig. 9) and 5d, were tested as internal standard (IS). […] Calibration curve points and quality control (QC) points were realized in spiked plasma or brain homogenate samples (Figure SI2). […]. Samples with concentrations above the upper calibration point were diluted to be in the calibration range. Limit of quantification (LOQ) was determined as the lowest point of the calibration curve at 1.6 pg/μL. QC samples were prepared at 14.5 and 58 pg/μL to validate the between-run precision (n = 3, RSD of 13% and 5%, respectively), between-run trueness was 95 and 88% respectively. […]. Limit of quantification (LOQ) was determined as the lowest point of the calibration curve at 1.6 pg/mg. QC samples were prepared at 3.2 and 22.4 pg/mg to validate the between-run precision (n = 3, RSD of 8% and 2% respectively), between-run trueness was 129 and 93% respectively.
Immediately following last day of training in the MWM, mice were sacrificed by decapitation for maximal blood collection and the brain was immediately extracted from the skull, the cerebellum removed and the hemispheres separated and frozen at −80 °C. Plasma was obtained as described above. […]. Subsequently, the IS was added to 400 µL of homogenate which was then centrifuged (12 min, 14000 × g, 4 °C). The supernatant was evaporated and transferred into 40 µL acetonitrile/methanol/water (2/2/1). After centrifugation (12 min, 14000 × g, 4 °C), 4 µL of supernatant was used for UHPLC-MS/MS analysis.

Ts65Dn mice = experiment: Morris water maze spatial learning in Ts65Dn and WT mice; type: in vivo
From the text: Ts65Dn mice, the best-characterized and most widely used mouse model of DS, are trisomic for a segment of chromosome 16 extending between genes Mrp139 and Znf295 and containing approximately 92 orthologues of human chromosome 21 genes[42] including the Dyrk1a gene. […] Mice were trained for a total of 5 days to learn a fixed spatial goal location in the maze. […] In this paradigm, learning occurred when mice succeeded in decreasing their traveled distances after repeated training trials.
Male Ts65Dn (n = 8) mice and euploid wild-type (WT) littermates (n = 10) were purchased from the Jackson Laboratory (Bar Harbor, Maine, USA). As the recessive retinal degeneration 1 mutation Pde6brd1 in the original Ts65Dn mice causes blindness in homozygotes, we used an alternative strain (SN 5252) that is wild-type for Pde6b, thereby preventing retinal degeneration. Housing conditions comprised a standard cage (air-controlled system) with ad libitum food and water and a 12 h light/dark cycle. Mice received at least one week of habituation to the animal facility, followed by three days of handling (three minutes per mouse per day). […] Treatment was continued during the MWM protocol (mice being injected 30 min before each daily session).
Vehicle consisted of an identical composition without compound 5a.
A white pool with a diameter of 150 cm was filled with water made opaque with non-toxic white paint (Acusol OP301, Rohm and Haas Company, Landskrone, Sweden) and kept at a constant temperature (20–21.5 °C). A 9-cm diameter platform was placed in the south-east (SE) quadrant of the pool, 1 cm under the water surface. The light intensity in the experimental room was kept constant at 70 Lux. Mice were habituated to the room for at least 30 min before starting each daily session. The acquisition phase comprised 5 days of training, four trials per day with an inter-trial interval of at least 20 min to minimize motor fatigue. The order of release positions in the pool was pseudo-randomly at the four cardinal points and changed every day to maximize spatial allocentric training and formation of a “cognitive map”. Each trial ended as soon as the mouse found the platform or after a maximum of 90 s, after which the animal was gently manually guided to the platform. Mice were left on the platform for 20 s before they were gently dried with a towel and individually placed in a cage with paper towels for further drying. The animals returned to their homecage after 5 min.
ANY-maze Video Tracking System (Stoelting, USA) was used to record all trials. Calculated measures included 1) thigmotaxis (percent distance traveled in the 10 cm wide peripheral annulus of the pool) indicative of unsuccessful spatial strategy to locate the platform and 2) the Corrected Integrated Pathway Length (CIPL) an unbiased measure of distance-to-platform travelled taking into account the animal’s speed and the initial distance from the goal for each starting position.

For Oc1ccc(-c2cnc3[nH]cc(-c4ccc(F)cc4)c3c2)cc1O [Compound 5a, 3-(4-fluorophenyl)-5-(3,4-dihydroxyphenyl)-1H-pyrrolo[2,3-b]pyridine], the average plasma concentration ([1]; Ts65Dn mice, n = 9) was 0.84 ± 0.54 µM, the mean brain concentration ([1]; Ts65Dn mice, n = 5, assuming vascular space 15 µL/g tissue) was 6.67 ± 4.64 µM and the average plasma concentration ([1]; WT mice, n = 10) was 0.50 ± 0.28 µM. For the same compound, the mean brain concentration ([1]; WT mice, n = 4, assuming vascular space 15 µL/g tissue) was 6.61 ± 5.35 µM, the Kp ([1]; Ts65Dn mice) was 6.43 ± 3.38 and the Kp ([1]; WT mice) was 10.8 ± 9.55. For the same compound, the “change of thigmotaxis between vehicle and 5a conditions” value (Ts65Dn mice; Ts65Dn mice, 20 mg/kg i.p.) was −12.9%, the “spatial learning performance (CIPL) in Morris water maze” value (Ts65Dn mice; Ts65Dn mice, 20 mg/kg i.p. daily, vs vehicle, p < 0.05) was “significant improvement of performance” and the “swim speed in Morris water maze” value (Ts65Dn mice; Ts65Dn mice, 20 mg/kg i.p., comparison with 5a-treated WT mice p > 0.99) was “restored normal swim speed”. For the same compound, the “change of thigmotaxis between vehicle and 5a conditions” value (Ts65Dn mice; WT mice, 20 mg/kg i.p.) was −6.5% and the “effect on Morris water maze performance” value (Ts65Dn mice; wild type mice, 20 mg/kg i.p. daily, vs vehicle) was “no observable effect”.
